In patent EP1614683B1, “Indazole compounds and pharmaceutical compositions for inhibiting protein kinases, and methods for their use” (priority 1999, dated 2001):
pIC50: −log10 of the molar value. Read-outs that look alike come from different tables or passages of the source.

How the values were obtained:
[1] = biological target: T1, phosphorylated Tie-2 (aa 775-1122) (Homo sapiens, UniProt Q02763); test: TIE-2 spectrophotometric assay; format: biochemical; conditions: Table 5; 1 µM; bold values spectrophotometric assay, non-bolded DELFIA assay (bold not visible here); read-out: % Inhibition @ 1 µM Tie2-P
T1 construct: 4 to 12 nM phosphorylated Tie-2 (aa 775-1122); made in house; host or cells: insect cells
How it was run: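 Human phosphorylated Tie-2 kinase activity was measured spectrophotometrically by coupling ADP formation, from phosphoryl transfer to poly(Glu4 Tyr), to NADH oxidation via pyruvate kinase and lactate dehydrogenase. Absorbance loss at 340 nm was read on a Beckman DU650. Reactions held 1 mM phosphoenolpyruvate, 0.24 mM NADH, 40 mM MgCl2, 5 mM DTT, 0.5 mM ATP, and 15 units/mL each of PK and LDH in 100 mM HEPES, pH 7.5.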

human FGF-R1 = human FGF-R1 (Homo sapiens, UniProt P11362, C488A/C584S/L457V); test: FGF-R spectrophotometric assay; format: biochemical; conditions: Table 1; compound concentration 1 µM; read-out: FGF-P* (% inhibition)
Protocol: The spectrophotometric assay was carried out as described above for VEGF-R2, except for the following changes in concentration: FGF-R = 50 nM, ATP = 2 mM, and poly(E4Y1) =15 mM.

CDK4/Cyclin D3 complex = CDK4/Cyclin D3 complex (Homo sapiens, UniProt P11802); test: biochemical; conditions: read-out: CDK4 * (% inhibition)
[2] = system: lung cancer cells (line MV522); test: Cancer cell proliferation (MV522) assay; format: cell-based; conditions: MV522; Table 1; read-out: MV522 IC50
How it was run: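 MTT reduction read-out was taken 72 h after addition of test agents, with no prior serum starvation. Cells were plated beforehand at two thousand per well in RPMI1640 containing 10% FBS and 2 mM glutamine and allowed one day to adhere.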

[3] = system: VEGF dependent retinal neovascularization; test: Neonatal rat model of retinopathy of prematurity; format: in vivo; conditions: Model ROP, intravitreal, 10 mg/ml, vehicle PEG/water 70:30
[4] = system: VEGF dependent retinal vascular development; test: In vivo assay of retinal vascular development in neonatal rats; parameters: species or system rat; conditions: Model P8, intravitreal, vehicle PEG/water 50:50
How it was run: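 Neonatal rats given compound by intravitreal injection, vehicle usually 50% PEG 400/50% 300 mM sucrose, with vehicle in contralateral eye. Retinas removed six days later, ADPase-stained and flat-mounted; stained vessel area quantified by imaging and expressed as percent regression versus vehicle eye.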

[5] = biological target: phosphorylated VEGF-R2Δ50 (Homo sapiens, UniProt P35968, DEL940-989/E990V); test: biochemical; conditions: read-out: FLVK -P** (% inhibition)
[6] = biological target: unphosphorylated VEGF-R2Δ50 (Homo sapiens, UniProt P35968, DEL940-989/E990V); test: biochemical; conditions: read-out: FLVK ** (% inhibition)
[7] = vehicle PEG400:H2O pH 2.3 30:70
in vivo = conditions: mouse, plasma, pH 2.3

Chain of unphosphorylated VEGF-R2Δ50 (P35968 with tags, fused parts or gaps DEL940-989/E990V limits assumed): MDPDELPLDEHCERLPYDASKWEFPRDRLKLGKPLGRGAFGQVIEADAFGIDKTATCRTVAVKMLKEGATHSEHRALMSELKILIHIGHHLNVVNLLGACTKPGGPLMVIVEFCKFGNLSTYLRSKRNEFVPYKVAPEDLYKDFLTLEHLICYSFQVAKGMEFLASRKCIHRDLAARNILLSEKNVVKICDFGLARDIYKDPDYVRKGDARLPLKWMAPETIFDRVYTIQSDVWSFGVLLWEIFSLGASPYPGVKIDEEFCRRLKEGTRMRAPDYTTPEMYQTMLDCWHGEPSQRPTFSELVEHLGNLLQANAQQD
T1 sequence (Q02763 775-1122): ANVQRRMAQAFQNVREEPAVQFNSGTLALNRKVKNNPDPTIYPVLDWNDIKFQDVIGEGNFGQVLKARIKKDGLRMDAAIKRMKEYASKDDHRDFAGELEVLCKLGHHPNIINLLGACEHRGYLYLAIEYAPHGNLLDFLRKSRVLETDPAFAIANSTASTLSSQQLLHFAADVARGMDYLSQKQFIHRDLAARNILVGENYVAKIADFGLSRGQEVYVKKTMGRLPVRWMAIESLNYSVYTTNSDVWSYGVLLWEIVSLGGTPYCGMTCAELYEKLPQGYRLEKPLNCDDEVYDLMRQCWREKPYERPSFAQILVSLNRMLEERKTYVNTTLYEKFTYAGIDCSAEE
Chain of CDK4/Cyclin D3 complex (P11802 whole entry): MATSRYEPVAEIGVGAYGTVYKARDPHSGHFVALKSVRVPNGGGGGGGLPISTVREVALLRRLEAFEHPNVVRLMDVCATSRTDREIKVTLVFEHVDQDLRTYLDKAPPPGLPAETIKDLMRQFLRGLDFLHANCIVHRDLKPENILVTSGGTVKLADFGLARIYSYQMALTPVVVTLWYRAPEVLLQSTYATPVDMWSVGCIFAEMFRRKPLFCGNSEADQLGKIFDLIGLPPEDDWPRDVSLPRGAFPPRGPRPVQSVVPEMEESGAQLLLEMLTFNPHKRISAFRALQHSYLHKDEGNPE
Chain of CDK4/Cyclin D3 complex (P30281 whole entry partner): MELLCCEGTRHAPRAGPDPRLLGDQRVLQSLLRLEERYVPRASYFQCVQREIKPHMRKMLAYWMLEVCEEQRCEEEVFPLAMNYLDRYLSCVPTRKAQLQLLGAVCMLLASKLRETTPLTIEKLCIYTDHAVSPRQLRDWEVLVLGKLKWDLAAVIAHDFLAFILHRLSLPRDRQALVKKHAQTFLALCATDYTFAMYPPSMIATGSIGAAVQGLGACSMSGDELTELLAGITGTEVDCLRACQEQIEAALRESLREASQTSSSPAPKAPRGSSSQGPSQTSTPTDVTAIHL
Chain of human FGF-R1 (P11362 456-766 L457V/C488A/C584S): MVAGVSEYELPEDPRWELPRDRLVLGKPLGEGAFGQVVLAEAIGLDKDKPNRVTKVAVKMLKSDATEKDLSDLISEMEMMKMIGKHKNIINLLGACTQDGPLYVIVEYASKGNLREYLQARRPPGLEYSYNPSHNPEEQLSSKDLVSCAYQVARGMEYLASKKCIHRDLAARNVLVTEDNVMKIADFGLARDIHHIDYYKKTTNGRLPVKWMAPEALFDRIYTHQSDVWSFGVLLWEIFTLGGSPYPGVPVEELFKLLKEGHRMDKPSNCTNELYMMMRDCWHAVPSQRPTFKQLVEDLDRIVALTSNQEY
Chain of phosphorylated VEGF-R2Δ50 (P35968 with tags, fused parts or gaps DEL940-989/E990V limits assumed): as the sequence (P35968 with tags, fused parts or gaps DEL940-989/E990V limits assumed) above

Molecule CCn1nc(C)cc1C(=O)Nc1cc(C(=O)c2ccc3c(/C=C/c4ccccn4)n[nH]c3c2)ccc1C [Reference Example 41(ee), 6-[3-((1-Ethyl-3-methyl-1H-pyrazol-5-yl)carboxamido)-4-methylbenzoyl]-3-E-[2-(pyridin-2-yl)ethenyl]-1H-indazole] has an inhibition at 1 µM [1] of 41%, an inhibition at 1 µM (human FGF-R1) of 94% and an inhibition at 1 µM (CDK4/Cyclin D3 complex) of 2%. The pIC50 [2] was 5.03.

With CCn1nc(C)cc1C(=O)Nc1cccc(C(=O)c2ccc3c(/C=C/c4ccccn4)n[nH]c3c2)c1 [Reference Example 41(a), 6-[3-((1-Ethyl-3-methyl-1H-pyrazol-5-yl)carboxamido)benzoyl]. 3-E-[2-(pyridin-2-yl)ethenyl]-1H-indazole] the “% Inhibition” value [3] was 64%, the “Initial Evaluation” value [3] was “+++ (three pluses give to retinas with near total regression (approximately 75% or greater))” and the “% Inhibition” value ([4]; 0.5 mg/ml) was 0%. It also gave an inhibition at 1 µM [1] of 50%, an inhibition at 0.05 µM [5] of 94% and an inhibition at 1 µM (CDK4/Cyclin D3 complex) of 6%.

Molecule C#CCNC(=O)c1ccccc1Sc1ccc2c(/C=C/c3ccccn3)n[nH]c2c1 [Reference Example 35(cc), 6-[2-(2-Propynylcarbamoyl)phenylsulfany]-3-E-[2-(pyridin-2-yl)ethenyl]-1H-indazole] has an inhibition at 1 µM [1] of 47%, an inhibition at 1 µM (human FGF-R1) of 74% and an inhibition at 1 µM (CDK4/Cyclin D3 complex) of 6%. It also gave an inhibition at 0.05 µM [6] of 89%.

For CCn1nc(C)cc1C(=O)Nc1cccc(Oc2ccc3c(/C=C/c4ccccn4)n[nH]c3c2)c1 [Reference Example 31(d), 6-[3-((1-Ethyl-3-methyl-1H-pyrazol-5-yl)carboxamido)phenoxy]-3-E-[2-(pridin-2-yl)ethenyl]-1H-indazole], the inhibition at 1 µM [1] was 46%, the T1/2 ([7]; IP, 25 mg/kg) was 5.3 h and the T1/2 ([7]; PO, 10 mg/kg) was 3.1 h. For the same molecule, the T1/2 ([7]; PO, 25 mg/kg) was 1.9 h, the T1/2 ([7]; PO, 50 mg/kg) was 39.3 h and the inhibition at 1 µM (CDK4/Cyclin D3 complex) was 9%. It also gave an inhibition at 0.05 µM [6] of 96%, an AUC (in vivo; ip, 25 mg/kg) of 238 µg·h/mL and an AUC (in vivo; po, 10 mg/kg) of 49.1 µg·h/mL. The AUC (in vivo; po, 25 mg/kg) was 204 µg·h/mL, the AUC (in vivo; po, 50 mg/kg) was 431 µg·h/mL and the pIC50 [2] was 5.28.

With CCONC(=O)c1ccccc1Sc1ccc2c(/C=C/c3ccccn3)n[nH]c2c1 [Reference Example 35(dd), 6-[2-(ethoxycarbamoyl)phenylsufanyl]-3-E-[2-(pyridin-2-yl)ethenyl]-1H-indazole] the “Initial Evaluation” value ([4]; 5 mg/ml) was “++/+++ var”, the inhibition at 1 µM [1] was 48% and the inhibition at 1 µM (CDK4/Cyclin D3 complex) was 8%.

O=C(NNc1ccccn1)c1ccccc1Sc1ccc2c(/C=C/c3ccccn3)n[nH]c2c1 [Reference Example 35(n), 6-[2-(N^2-(pyrid-2-ylhydrazino)carbonyl)phenylsulfanyl]-3-E-[2-(pyridin-2-yl)ethenyl]-1H-indazole] showed an inhibition at 1 µM [1] of 82%, an inhibition at 1 µM (CDK4/Cyclin D3 complex) of 10% and a pIC50 [2] of 5.29.

With CCCn1nc(C)cc1C(=O)Nc1cccc(C(=O)c2ccc3c(/C=C/c4ccccn4)n[nH]c3c2)c1 [Reference Example 41(r)] the inhibition at 1 µM [1] was 56%, the inhibition at 1 µM (human FGF-R1) was 92% and the inhibition at 1 µM (CDK4/Cyclin D3 complex) was 5%. The inhibition at 0.05 µM [6] was 100%.

In the case of CC(C)ONC(=O)c1ccccc1Sc1ccc2c(/C=C/c3ccccn3)n[nH]c2c1 [Reference Example 35(k)], the inhibition at 1 µM [1] was 55%, the inhibition at 1 µM (human FGF-R1) was 34% and the inhibition at 1 µM (CDK4/Cyclin D3 complex) was 7%. The inhibition at 0.05 µM [6] was 85%.
